Tests used:
[1] = Phase 1 multiple dose (Part 2): safety and tolerability in healthy adults; type: in vivo, human; conditions: 1.25 mg qw fasted
Procedure: All volunteers were followed up for 4 weeks and safety and tolerability were continuously assessed throughout the study. All adverse events (AEs) were recorded from the time of consent to the completion visit and were graded using the DAIDS toxicity grading scale. Volunteers also underwent physical examinations, electrocardiograms, vital sign checks and clinical laboratory parameters (chemistry, haematology, urinalysis).

[2] = 14- and 28-day toxicity study in monkeys; type: in vivo; conditions: 3, 15, and 100 mg/kg biw
Text: (§1) Exposure increased more than dose-proportionally at low doses. Variability in exposure was high. • In vitro plasma protein binding was between 79.6% and 94.2% in animals and humans. Volume of distribution after intravenous dosing was high. […] Main metabolic pathways were oxygenation, hydrogenation, dehydrogenation, dealkylation, acetylation, glucuronidation, and/or glutathione conjugation. • In rats, >80% of drug-related material was found in feces, 11% to 20% in bile, and <4% in urine. […] There were no effects on embryofetal development up to 1 mg/kg/dose in rats and 30 mg/kg/dose in rabbits.

[3] = tested on: interferon-stimulated genes (ISGs) and cytokines in peripheral blood; test: single oral administration in monkeys: tolerability, ISG and cytokine induction; type: in vivo
Text: as §1

[4] = BCS classification; type: physicochemical; conditions: high solubility, low permeability
Procedure: AUC48h was approximately 17% (95% Cl: 65.89-105.71%) lower in fed condition compared with fasted. These differences are aligned with BCS Class 3 (high solubility, low permeability) compound properties.

[5] = tested on: cytokines and ISGs (ISG15, MX1, OAS1); test: Phase 1 multiple dose pharmacodynamics in healthy adults; type: in vivo, human; conditions: 1.25 mg qw
Procedure: Serum levels of IFN-α were measured by ELISA. Serum levels of IP-10, IFN-γ, TNF-α, IL-12 (subunit P40), IL-6, IL-1β, IL-1RA, IL-18, MCP-1, MIP-1β, G-CSF, GM-CSF, IL-10, IL-15 were measured by Luminex xMAP technology. The LLOQ for IFN-α was determined at 12.5 pg/mL and at 25 pg/mL for all other cytokines measured. Fold changes for each of the cytokines were calculated compared to predose values or LLOQ-1 values if predose values were below LLOQ.
IFN-stimulated gene (ISG) expression analysis was conducted for 3 genes, ISG15, MX1, and OAS1, using quantitative polymerase chain reaction (qPCR) on collected whole blood samples. For the ISGs, relative fold changes from baseline were calculated according to the delta delta Cycle threshold (Ct) method (2^[Delta Delta Ct]). Assessments were done for Part 1 predose and postdose: 1.5 hours, 6 hours, 12 hours (Day 1), 24 hours (day 2), 48 hours (Day 3), 96 hours (Day 5), follow-up Week 2. For the Part 2, assessments were done predose and post the first and fourth dose: 2 hours, 4 hours, 12 hours, 24 hours, 48 hours, 96 hours and one week follow-up; and post the second and third doses: 12 hours and 48 hours.

[6] = 12 hours after the second administration

CCCCOc1nc(N)c2[nH]cc(Cc3ccc(CN4CCCC4)cc3)c2n1 [Compound 4]
ECG actual value: Heart rate (bpm) Low [1]: 0 n (%)
ECG actual value: QTcB (ms) ]450; 480] [1]: 1 (16.7%) n (%)
ECG change from reference: QTcB (ms) >60 [1]: 1 (16.7%) n (%)
ECG change from reference: QTcB (ms) [30; 60] [1]: 1 (16.7%) n (%)
ECG change from reference: QTcF (ms) [30; 60] [1]: 1 (16.7%) n (%)
lab toxicity: Amylase (U/L), upwards, Grade 1 [1]: 2 (33.3%) n (%)
lab toxicity: Amylase (U/L), upwards, Grade 2 [1]: 0 n (%)
lab toxicity: Aspartate aminotransferase (U/L), upwards, Grade 1 [1]: 1 (16.7%) n (%)
lab toxicity: Aspartate aminotransferase (U/L), upwards, Grade 2 [1]: 1 (16.7%) n (%)
lab toxicity: Cholesterol (mmol/L), upwards, Grade 1 [1]: 1 (16.7%) n (%)
lab toxicity: Creatine kinase (U/L), upwards, Grade 3 [1]: 1 (16.7%) n (%)
lab toxicity: Creatine kinase (U/L), upwards, Grade 4 [1]: 1 (16.7%) n (%)
lab toxicity: GFR from creatinine adjusted for BSA (mL/s/1.73m^2), downwards, Grade 2 [1]: 1 (16.7%) n (%)
lab toxicity: Glucose (mmol/L), upwards, Grade 1 [1]: 4 (66.7%) n (%)
lab toxicity: Glucose (mmol/L), upwards, Grade 2 [1]: 2 (33.3%) n (%)
lab toxicity: Potassium (mmol/L), upwards, Grade 1 [1]: 1 (16.7%) n (%)
lab toxicity: Sodium (mmol/L), upwards, Grade 1 [1]: 0 n (%)
lab toxicity: Triglycerides (mmol/L), upwards, Grade 1 [1]: 1 (16.7%) n (%)
lab toxicity: Triglycerides (mmol/L), upwards, Grade 2 [1]: 2 (33.3%) n (%)
subjects with at least one AE [1]: 6 (100%) n (%)
subjects with at least one AE for which any study drug or study was permanently stopped [1]: 1 (16.7%) n (%)
subjects with at least one AE for which any study drug or study was temporarily stopped [1]: 0 n (%)
subjects with at least one AE possibly related to any study drug [1]: 2 (33.3%) n (%)
subjects with at least one AE possibly, probably or very likely related to any study drug [1]: 3 (50.0%) n (%)
subjects with at least one AE probably related to any study drug [1]: 1 (16.7%) n (%)
subjects with at least one AE very likely related to any study drug [1]: 1 (16.7%) n (%)
subjects with at least one SAE [1]: 0 n (%)
subjects with at least one fatal AE [1]: 0 n (%)
subjects with at least one grade 1 AE [1]: 5 (83.3%) n (%)
subjects with at least one grade 2 AE [1]: 1 (16.7%) n (%)
subjects with at least one grade 3 or 4 AE [1]: 0 n (%)
subjects with high values for the monocytes/leukocytes ratio (non-graded) [1]: 4 (66.7%) n (%)
subjects with low erythrocyte count (non-graded) [1]: 3 (50.0%) n (%)
treatment-related AE: Abdominal pain [1]: 0 n (%)
treatment-related AE: Any AE [1]: 3 (50.0%) n (%)
treatment-related AE: Arthralgia [1]: 1 (16.7%) n (%)
treatment-related AE: Dry skin [1]: 1 (16.7%) n (%)
treatment-related AE: Dyspnoea [1]: 1 (16.7%) n (%)
treatment-related AE: Eye disorders [1]: 1 (16.7%) n (%)
treatment-related AE: Gastrointestinal disorders [1]: 1 (16.7%) n (%)
treatment-related AE: Headache [1]: 1 (16.7%) n (%)
treatment-related AE: Nausea [1]: 1 (16.7%) n (%)
treatment-related AE: Nervous system disorders [1]: 1 (16.7%) n (%)
treatment-related AE: Respiratory, thoracic and mediastinal disorders [1]: 1 (16.7%) n (%)
treatment-related AE: Retching [1]: 1 (16.7%) n (%)
treatment-related AE: Retinal exudates [1]: 1 (16.7%) n (%)
treatment-related AE: Skin and subcutaneous tissue disorders [1]: 1 (16.7%) n (%)
vital signs: Respiratory rate (brpm) Grade 1 [1]: 4 (66.7%) n (%)
vital signs: SaO2 (%) 95% to <98% [1]: 5 (83.3%) n (%)
vital signs: Standing DBP (mmHg) Grade 1 [1]: 2 (33.3%) n (%)
vital signs: Standing DBP (mmHg) Grade 2 [1]: 2 (33.3%) n (%)
vital signs: Standing DBP (mmHg) Grade 3 [1]: 2 (33.3%) n (%)
vital signs: Standing SBP (mmHg) Grade 1 [1]: 3 (50.0%) n (%)
vital signs: Standing SBP (mmHg) Grade 2 [1]: 0 n (%)
vital signs: Standing SBP (mmHg) Low [1]: 2 (33.3%) n (%)
vital signs: Standing pulse (bpm) High [1]: 3 (50.0%) n (%)
vital signs: Supine DBP (mmHg) Grade 1 [1]: 2 (33.3%) n (%)
vital signs: Supine SBP (mmHg) Grade 1 [1]: 1 (16.7%) n (%)
vital signs: Supine SBP (mmHg) Low [1]: 0 n (%)
vital signs: Supine pulse (bpm) Low [1]: 1 (16.7%) n (%)
lab toxicity: LDL cholesterol (mmol/L, direct), upwards, Grade 1 ([1]; n = 1 with data): 1 (100.0%) n (%)
lab toxicity: Pancreatic amylase (U/L), upwards, Grade 1 ([1]; n = 2 with data): 1 (50.0%) n (%)
brain inflammation [2]: Brain inflammation occurred
cytokine induction (IFN-α, IP-10, IL-1 RA, MCP-1) ([3]; 0.6 mg/kg): induction of 4 of the 14 cytokines tested
cytokine induction ([3]; 0.1 and 0.15 mg/kg): only increases in IP-10 were detected
ISG15, MX1 and OAS1 in peripheral blood ([3]; each dose, 12-24 hours postdose): increase in all 3 major interferon-stimulated genes
dose for which the LEC was observed (minimal target engagement) ([3]; monkey, in vivo): 0.1 mg/kg
tolerability ([3]; single oral 0.05, 0.1, 0.15 and 0.6 mg/kg): well tolerated
BCS class [4]: BCS Class 3
IFN-α or IP-10 levels before the subsequent dose [5]: values returned to baseline before administration of the subsequent dose
PD responses after the last dose compared to the first dose [5]: No enhanced induction of PD responses as well as no evidence for tachyphylaxis
fold increase of IFN-α in the subject with cotton wool spots [5, 6]: 8.4 fold
maximum IFN-α level in the subject with cotton wool spots [5, 6]: 97 pg/mL

— patent US12263172B2, “Toll-like receptor agonists for use in the treatment of hepatitis b” (priority 2019, dated 2025)
